Reference: US11458123B2 (Arvinas, Inc., priority 2016, dated 2022)

The compounds below were run on tau protein (assay: Tau protein in vitro degradation assay (Western blot, Tau-13 antibody)). Settings: SK-N-SH cells; 72 hours of incubation; tested at 300 nM, 100 nM, 33 nM and 11 nM; Western blot, Tau-13 antibody.
Format: cell-based, human
Procedure, shortened: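 SK-N-SH cells, seeded ≥18 h beforehand, were incubated 72 h with tau PROTACs at 1000, 300 and 100 nM or at 300, 100, 33 and 11 nM. Lysates in protease-inhibitor buffer were resolved by SDS-PAGE; tau quantified by Western blot with Tau-13 antibody recognising all human tau forms.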

Compound	Degradation activity* (highest amount of degradation observed at any dosage; tau protein remaining)	Degradation activity (tau protein remaining; highest amount of degradation observed at any dosage)
Cn1c2ccncc2c2ccc(-c3ccc(OCCCCOCCCCOC4CC5(C4)CN(c4ccc6c(c4)C(=O)N(C4CCC(=O)NC4=O)C6=O)C5)nc3)cc21 (centres unmarked) [Compound 100, 2-(2,6-dioxopiperidin-3-yl)-5-(6-(4-(4-((5-(5-methyl-5H-pyrido[4,3-b]indol-7-yl)pyridin-2-yl)oxy)butoxy)butoxy)-2-azaspiro[3.3]heptan-2-yl)isoindoline-1,3-dione]	C (>80% tau protein remaining after 72 hours of incubation with the test compound)	–
Cn1c2ccncc2c2ccc(-c3ccc(OCCCOc4ccc(CCCOC5CN(c6ccc7c(c6)C(=O)N(C6CCC(=O)NC6=O)C7=O)C5)nc4)nc3)cc21 (centres unmarked) [Compound 168, 2-(2,6-dioxopiperidin-3-yl)-5-(3-(3-(5-(3-((5-(5-methyl-5H-pyrido[4,3-b]indol-7-yl)pyridin-2-yl)oxy)propoxy)pyridin-2-yl)propoxy)azetidin-1-yl)isoindoline-1,3-dione]	B (≤80% and >50% tau protein remaining after 72 hours of incubation with the test compound)	–
O=C1CCC(N2C(=O)c3ccc(OCCOCCOCCOCCOCCOc4ccc(-c5ccc6c7cnccc7n(C(F)F)c6c5)cn4)cc3C2=O)C(=O)N1 (centres unmarked) [Compound 138, 5-((14-((5-(5-(difluoromethyl)-5H-pyrido[4,3-b]indol-7-yl)pyridin-2-yl)oxy)-3,6,9,12-tetraoxatetradecyl)oxy)-2-(2,6-dioxopiperidin-3-yl)isoindoline-1,3-dione]	B (≤80% and >50% tau protein remaining after 72 hours of incubation with the test compound)	–
O=C1CCC(N2C(=O)c3ccc(OCCCCC#Cc4ccc(O[C@H]5C[C@H](Oc6ccc(-c7ccc8c(c7)[nH]c7ccncc78)cn6)C5)cn4)cc3C2=O)C(=O)N1 (some centres unmarked) [Compound 172, 5-((6-(5-((1r,3r)-3-((5-(5H-pyrido[4,3-b]indol-7-yl)pyridin-2-yl)oxy)cyclobutoxy)pyridin-2-yl)hex-5-yn-1-yl)oxy)-2-(2,6-dioxopiperidin-3-yl)isoindoline-1,3-dione]	–	C (>80% tau protein remaining after 72 hours of incubation with the test compound)
Cn1c2ccncc2c2ccc(-c3ccc(O[C@H]4C[C@H](OCCCOCCCOC5CN(c6ccc7c(c6)CN(C6CCC(=O)NC6=O)C7=O)C5)C4)nc3)cc21 (some centres unmarked) [Compound 177, 3-(5-(3-(3-(3-((1r,3r)-3-((5-(5-methyl-5H-pyrido[4,3-b]indol-7-yl)pyridin-2-yl)oxy)cyclobutoxy)propoxy)propoxy)azetidin-1-yl)-1-oxoisoindolin-2-yl)piperidine-2,6-dione]	–	A (≤50% tau protein remaining after 72 hours of incubation with the test compound)
O=C1CCC(N2C(=O)c3ccc(OCCCCCN4CCN(CCCc5ccc(-c6ccc7c(c6)[nH]c6ccncc67)cn5)CC4)cc3C2=O)C(=O)N1 (centres unmarked) [Compound 54, 5-((5-(4-(3-(5-(5H-pyrido[4,3-b]indol-7-yl)pyridin-2-yl)propyl)piperazin-1-yl)pentyl)oxy)-2-(2,6-dioxopiperidin-3-yl)isoindoline-1,3-dione]	C (>80% tau protein remaining after 72 hours of incubation with the test compound)	–
Cn1c2ccncc2c2ccc(-c3ccc(OC4CN(CCCCCOCCCCCOc5ccc6c(c5)C(=O)N(C5CCC(=O)NC5=O)C6=O)C4)nc3)cc21 (centres unmarked) [Compound 106, 2-(2,6-dioxopiperidin-3-yl)-5-((5-((5-(3-((5-(5-methyl-5H-pyrido[4,3-b]indol-7-yl)pyridin-2-yl)oxy)azetidin-1-yl)pentyl)oxy)pentyl)oxy)isoindoline-1,3-dione]	B (≤80% and >50% tau protein remaining after 72 hours of incubation with the test compound)	–
Cn1c2ccncc2c2ccc(-c3ccc(OCCCCCOCCCCCO[C@H]4C[C@H](Oc5ccc6c(c5)C(=O)N(C5CCC(=O)NC5=O)C6=O)C4)nc3)cc21 (some centres unmarked) [Compound 85, 2-(2,6-dioxopiperidin-3-yl)-5-((1r,3r)-3-((5-((5-((5-(5-methyl-5H-pyrido[4,3-b]indol-7-yl)pyridin-2-yl)oxy)pentyl)oxy)pentyl)oxy)cyclobutoxy)isoindoline-1,3-dione]	A (≤50% tau protein remaining after 72 hours of incubation with the test compound)	–
O=C1CCC(N2C(=O)c3ccc(OCCCCCOCCN4CCN(CCCc5ccc(-c6ccc7c(c6)[nH]c6ccncc67)cn5)CC4)cc3C2=O)C(=O)N1 (centres unmarked) [Compound 58, 5-((5-(2-(4-(3-(5-(5H-pyrido[4,3-b]indol-7-yl)pyridin-2-yl)propyl)piperazin-1-yl)ethoxy)pentyl)oxy)-2-(2,6-dioxopiperidin-3-yl)isoindoline-1,3-dione]	C (>80% tau protein remaining after 72 hours of incubation with the test compound)	–
Cn1c2ccncc2c2ccc(-c3ccc(O[C@H]4C[C@H](OCCOCCCOCC5CN(c6ccc7c(c6)C(=O)N(C6CCC(=O)NC6=O)C7=O)C5)C4)nc3)cc21 (some centres unmarked) [Compound 191, 2-(2,6-dioxopiperidin-3-yl)-5-(3-((3-(2-((1r,3r)-3-((5-(5-methyl-5H-pyrido[4,3-b]indol-7-yl)pyridin-2-yl)oxy)cyclobutoxy)ethoxy)propoxy)methyl)azetidin-1-yl)isoindoline-1,3-dione]	–	A (≤50% tau protein remaining after 72 hours of incubation with the test compound)
Cn1c2ccncc2c2ccc(-c3ccc(OCCOCCOCCOCCOCCOCCOCCOc4ccc5c(c4)C(=O)N(C4CCC(=O)NC4=O)C5=O)nc3)cc21 (centres unmarked) [Compound 132, 2-(2,6-dioxopiperidin-3-yl)-5-((20-((5-(5-methyl-5H-pyrido[4,3-b]indol-7-yl)pyridin-2-yl)oxy)-3,6,9,12,15,18-hexaoxaicosyl)oxy)isoindoline-1,3-dione]	A (≤50% tau protein remaining after 72 hours of incubation with the test compound)	–
Cn1c2ccncc2c2ccc(-c3ccc(O[C@H]4C[C@H](Oc5cnc(C#CCCCCOc6ccc7c(c6)C(=O)N(C6CCC(=O)NC6=O)C7=O)nc5)C4)nc3)cc21 (some centres unmarked) [Compound 141, 2-(2,6-dioxopiperidin-3-yl)-5-((6-(5-((1r,3r)-3-((5-(5-methyl-5H-pyrido[4,3-b]indol-7-yl)pyridin-2-yl)oxy)cyclobutoxy)pyrimidin-2-yl)hex-5-yn-1-yl)oxy)isoindoline-1,3-dione]	C (>80% tau protein remaining after 72 hours of incubation with the test compound)	–
Cn1c2ccncc2c2ccc(-c3ccc(OC4CC5(C4)CN(C(=O)COCCCOC4CN(c6ccc7c(c6)C(=O)N(C6CCC(=O)NC6=O)C7=O)C4)C5)nc3)cc21 (centres unmarked) [Compound 193, 2-(2,6-dioxopiperidin-3-yl)-5-(3-(3-(2-(6-((5-(5-methyl-5H-pyrido[4,3-b]indol-7-yl)pyridin-2-yl)oxy)-2-azaspiro[3.3]heptan-2-yl)-2-oxoethoxy)propoxy)azetidin-1-yl)isoindoline-1,3-dione]	–	B (≤80% and >50% tau protein remaining after 72 hours of incubation with the test compound)

Same assay, conditions: SK-N-SH cells; 72 hours of incubation; tested at 1000 nM, 300 nM and 100 nM

Compound	Activity* (highest amount of degradation observed at any dosage, as tau protein remaining)
Cc1ncsc1-c1ccc(CNC(=O)[C@@H]2C[C@@H](O)CN2C(=O)[C@@H](NC(=O)COCCOCCOCCOCC(=O)N2CCN(c3ccn4c(n3)nc3ccccc34)CC2)C(C)(C)C)cc1 [Compound 24, (2S,4R)-1-((5)-17-(4-(benzo[4,5]imidazo[1,2-a]pyrimidin-2-yl)piperazin-1-yl)-2-(tert-butyl)-4,17-dioxo-6,9,12,15-tetraoxa-3-azaheptadecanoyl)-4-hydroxy-N-(4-(4-methylthiazol-5-yl)benzyl)pyrrolidine-2-carboxamide]	C (>80% tau protein remaining after 72 hours of incubation with the test compound)
O=C1CCC(N2Cc3c(NCCOCCOCCOCCOCCOc4ccc(-c5ccc6c(c5)[nH]c5ccncc56)cn4)cccc3C2=O)C(=O)N1 (centres unmarked) [Compound 49, 3-(4-((14-((5-(5H-pyrido[4,3-b]indol-7-yl)pyridin-2-yl)oxy)-3,6,9,12-tetraoxatetradecyl)amino)-1-oxoisoindolin-2-yl)piperidine-2,6-dione]	A (≤50% tau protein remaining after 72 hours of incubation with the test compound)
Cc1ncsc1-c1ccc(CNC(=O)[C@@H]2C[C@@H](O)CN2C(=O)[C@@H](NC(=O)COCCOCCOCCOCCCOc2ccc3nc(-c4ccc(N(C)C)cc4)ccc3c2)C(C)(C)C)cc1 [Compound 9, (2S,4R)-1-((S)-2-tert-butyl-18-(2-(4-(dimethylamino)phenyl)quinolin-6-yloxy)-4-oxo-6,9,12,15-tetraoxa-3-azaoctadecane)-4-hydroxy-N-(4-(4-methylthiazol-5-yl)benzyl)pyrrolidine-2-carboxamide]	C (>80% tau protein remaining after 72 hours of incubation with the test compound)
Cc1ncsc1-c1ccc(CNC(=O)[C@@H]2C[C@@H](O)CN2C(=O)[C@@H](NC(=O)COCCCCOc2ccc3nc(-c4ccc(N(C)C)cc4)ccc3c2)C(C)(C)C)cc1 [Compound 33, (2S,4R)-1-((S)-2-(2-(4-(2-(4-(dimethylamino)phenyl)quinolin-6-yloxy)butoxy)acetamido)-3,3-dimethylbutanoyl)-4-hydroxy-N-(4-(4-methylthiazol-5-yl)benzyl)pyrrolidine-2-carboxamide]	C (>80% tau protein remaining after 72 hours of incubation with the test compound)
